The source of these data is PMC11977230, “Coevolving residues distant from the ligand binding site are involved in GAF domain function” (Communications Chemistry, 2025).

Broadly, the EC50 is the concentration needed to bring the measured effect to its halfway point.

For assay [1], the target named is T1, L267A mutant PDE5 GAFa domain biosensor (Homo sapiens, UniProt O76074, L267A).
T1 construct: made in house; host or cells: HEK293T cells, transfected; cleared lysate used, not purified
The assay can be described thus: BRET-based GAFa domain conformational biosensor, cGMP dose-response (L267A). Type of assay: biochemical. The conditions noted are these: 1 µM cGMP. The text has this:
(§1) Having observed alterations in the structural dynamics in the GAFa domain of PDE5 upon L267A and F295A mutations using MD simulations, we then proceeded to determine the impact of these mutations experimentally. […] (Fig. 4A). Broadly, these changes include a close juxtaposition of the sheet β3 and helix α4 leading to a “closing” of the cGMP binding site, an “inward” movement of sheet β1 and β2 towards the cGMP binding site and an “outward” movement of the loop β2/β3 (Fig. 4A, left panel). Additionally, cGMP binding is associated with a close juxtapositioning of helices α2 and α5 at the N- and C-termini of the GAFa domain, likely associated with the transduction of the allosteric signal from the GAFa domain to the catalytic domain in PDE5 (Fig. 4A, right panel). We decided to take advantage of the latter to monitor cGMP-binding induced conformational change in the GAFa domain through an increase in the BRET efficiency of the GAFa domain biosensor that we have described previously[24] (Fig. 4B). BRET is a biophysical technique that involves resonance energy transfer between a bioluminescent donor and a fluorescent acceptor, the extent of which is dependent on the spectral overlap, distance, and relative orientation between the two reporters. […]
For orientation: In BRET a luciferase serves as donor, and the signal depends on an acceptor being close.

For another assay, the system named is GAFb domain of PDE2A. Also on record: method as in PMID 15210692. To be noted: cGMP-binding GAFb domain of PDE2A; cited from earlier work.
The target in assay [2] is T2, WT full-length PDE5A2 biosensor (GFP^2-PDE5A2-RLuc) (Homo sapiens, UniProt O76074).
T2 construct: the GAFa domain (I159-N316) or the full-length PDE5A2, were flanked by the green fluorescent protein 2 (GFP^2); made in house; host or cells: HEK293T cells, transfected; cleared lysate used, not purified
Description: BRET-based full-length PDE5A2 conformational biosensor, cGMP dose-response (WT). It counts as biochemical. From the text:
(§2) Having elucidated the impact of the L267A and F295A mutations in the isolated GAFa domain, we aimed to investigate their effect on the cGMP-binding induced conformational change in the full-length PDE5 protein. For this, we incorporated the mutations in our previously described BRET-based, full-length PDE5A2 biosensor (Fig. 5A) that reports a conformational change upon cGMP binding to the GAFa, but not the catalytic, domain in the protein[25].
(§3) The design of the BRET^2-based GAFa and full-length PDE5 (A2 isoform) biosensors was described previously[24],[25]. […]
(§4) All assays were performed at 37 °C in 96-well, white, flat-bottom plates. […] Bioluminescence spectra of the WT or the mutant biosensors were acquired over wavelengths ranging between 385 and 665 nm utilizing a grating-based system with 15 nm integration step size, with each individual measurement acquired for 1 s using a Tecan SPARK® multimode microplate reader (Tecan, Switzerland). BRET was determined as a ratio of GFP^2 and RLuc emission, either in the absence or in the presence of the indicated concentrations of cGMP, following a 30-min incubation at 37 °C. Bioluminescence and BRET were measured following the addition of the RLuc substrates, either coelenterazine 400a or Prolume purple (NanoLight Technology, Prolume Ltd., USA). […]

The target in assay [3] is F295A mutant full-length PDE5A2 biosensor (Homo sapiens, UniProt O76074, F295A). Description: BRET-based full-length PDE5A2 conformational biosensor, cGMP dose-response (F295A). It counts as biochemical.
From the text: as §2, §3, §4

For assay [4], the system named is isolated PDE5 GAFa domain. To be noted: cited from earlier work.
Assay [5] deals with T3, F295A mutant PDE5 GAFa domain biosensor (Homo sapiens, UniProt O76074, F295A).
T3 construct: made in house; host or cells: HEK293T cells, transfected; cleared lysate used, not purified
Description: BRET-based GAFa domain conformational biosensor, cGMP dose-response (F295A). Type of assay: biochemical. The conditions noted are these: 1 µM cGMP.
From the text: as §1

Assay [6] concerns the target L267A mutant full-length PDE5A2 biosensor (Homo sapiens, UniProt O76074, L267A). The assay can be described thus: BRET-based full-length PDE5A2 conformational biosensor, cGMP dose-response (L267A). It counts as biochemical.
From the text: as §2, §3, §4

The target in assay [7] is T4, WT PDE5 GAFa domain biosensor (GFP^2-GAFa(I159-N316)-RLuc) (Homo sapiens, UniProt O76074).
T4 construct: plasmids expressing the GAFa domain-based (GFP^2-GAFa(I159-N316)-RLuc); made in house; host or cells: HEK293T cells, transfected; cleared lysate used, not purified
The assay can be described thus: BRET-based GAFa domain conformational biosensor, cGMP dose-response (WT). It counts as biochemical.
From the text: as §1

Setting [8] is: 30 min incubation, mean ± S.D., three experiments, read-out: EC50 of cGMP-induced conformational change (decrease in BRET).

Molecules are shown by their SMILES.

For `Nc1nc2c(ncn2[C@@H]2O[C@@H]3COP(=O)(O)O[C@H]3[C@H]2O)c(=O)[nH]1` [cGMP], the “change in BRET in the presence of cGMP” value was “neither the L267A nor the F295A mutant biosensors showed a discernible change in BRET” in assay [1], “neither the L267A nor the F295A mutant biosensors showed a discernible change in BRET” in assay [5] and “increase in BRET” in assay [7] (1 µM cGMP). The “fold higher affinity for cGMP” value with GAFb domain of PDE2A is listed as “about 20 fold”. Further, the EC50 in assay [2] (setting [8]) was determined as 0.073 ± 0.02 µM; in assay [3] (setting [8]), 3.4 ± 2.1 µM; in assay [6] (setting [8]) it was 0.181 ± 0.03 µM; in assay [7] (read-out: EC50 of cGMP-induced conformational change (increase in BRET), HEK293T cell lysate, 30 min, 37 °C, mean ± S.D., four experiments), 0.019 ± 0.013 µM. For the same compound, the “maximum BRET change” value is listed as -26.60 ± 3.42% in assay [2] (cGMP dose-response), −12.60 ± 2.37% in assay [3] (cGMP dose-response) and −17.43 ± 1.31% in assay [6] (cGMP dose-response). Moreover, the “affinity for cGMP” value in assay [4] (PDE5 GAFa domain) is “nanomolar affinity”. In addition, the “higher affinity for cGMP compared to cAMP” value in assay [4] (isolated PDE5 GAFa domain) was “thousand-fold”.
